Data from US20250212873A1, “VOLATILE HDAC INHIBITORS FOR THERAPEUTIC AND PLANT APPLICATIONS” (The Regents of the University of California, priority 2022, published 2025).
“Also recorded” adds a separate entry of the source. Structures can show the parent of a compound that is named as a salt.

Tests used:
[1] = system: Arabidopsis thaliana seedlings; assay: Odor Exposure assay, Arabidopsis thaliana seedlings (root and leaf development); format: in vivo; details: for lateral root growth (number of lateral roots) / leaf development (number of large / true leaves) / root growth (primary root length): 7-day exposure; for lateral root growth (number of lateral roots) / leaf development (number of large / true leaves) / root growth: headspace of 1% v/v in Paraffin oil; for root growth (primary root length): headspace of solution in Paraffin oil; for root growth: 3.5-day exposure
Method: The Odor Exposure assay consists of controlled exposure of volatile odor compounds to model plant Arabidopsis within enclosed aquariums and similar growth conditions (23° C. with a 12-hour light/dark cycle). For Arabidopsis, seedlings were aligned on agar plates for growth after a 4-day cold treatment process. The agar plates with seedlings were then placed in enclosed aquariums with moist paper towels soaked in 10 ml of DI water for humidity. The plates were placed along the wall, approximately 12 cm from odor dispensers which resided in the center of the glass tank.
The test compound odor dispensers, consisting of (60×15 mm) polystyrene Petri dishes containing 2 ml of 1% v/v in PO, are replaced at the 3.5, 5, and 6-day time mark during the 7-day experiment. Root growth is marked during each time mark and the plates were imaged. The plants are to be collected after the 7-day exposure, photographed, and the leaves/roots carefully dissected separated, flash frozen in liquid nitrogen, and preserved for future sequencing. Root growth is measured using ImageJ.
In order to study the physiological effects of long-term exposure to microbial volatiles the model system Arabidopsis was exposed for […] to diacetyl, a volatile chemical emitted by fermentation by yeast or microbial degradation in the soil associated with roots (R. J. Morcillo et al., EMBO J 39, e102602 (2020); M. A. Farag, et al., Phytochemistry 67, 2262-2268 (2006); and C. M. Ryu et al., P Natl Acad Sci USA 100, 4927-4932 (2003). The Odor Exposure assay consisted of controlled exposure of volatile HDAC inhibiting compounds to model plant Arabidopsis within enclosed aquariums and similar growth conditions. The test compound odor cartridges, consisting of 60×15 mm polystyrene Petri dishes containing 2 ml of indicated concentration in Paraffin Oil, were replaced at the 3.5, 5, and 6-day time mark during the 7-day experiment (FIG. 1A, left). In separate experiments the weight loss from the odor cartridges over time was measured and used it to calculate the concentration of diacetyl in the glass chambers in parts per million (FIG. 1A, right).
In order to directly evaluate whether exposure to vapors of the four HDAC-inhibitory VOCs affect root development, we performed a set of experiments using A. thaliana seedlings as before. Solutions for each of the four chemicals on a small petri dish were placed away from the seedlings growing in agar plate and enclosed in glass tank. The Root tips were marked at specified days post treatment start and photographs analyzed. The plants were collected after the 7-day exposure, photographed, and the roots were separated. Detailed measurements were made from the photos using ImageJ and the root length and numbers of lateral roots quantified at day 3.5 and day 7 after start if the treatment (FIG. 1B).
The Odor Exposure assay consists of controlled exposure of volatile odor compounds to model plant Arabidopsis within enclosed aquariums and similar growth conditions (23° C. with a 12-hour light/dark cycle). The test compound odor cartridges, consisting of (60×15 mm) polystyrene Petri dishes containing 2 ml of 1% v/v in paraffin oil (PO), were replaced at the 3.5, 5, and 6-day time mark during the 7-day experiment. Root growth was marked during each time point and the plates were imaged. Numbers of true leaves were also counted. The plants are to be collected after the 7-day exposure, photographed, and the leaves/roots carefully dissected separated, flash frozen in liquid nitrogen, and preserved for future sequencing. Root growth is measured using ImageJ.

[2] = system: Class I and Class II HDACs; assay: In vitro assays with purified human Class I and II HDACs (panel statements); format: biochemical; details: 15 mM
Method: Presented are data for selected compounds that act as Histone deacetylase inhibitors in vitro or HDAC inhibitors. 26 compounds were screened against purified human HDACs.
HDAC activity of class I HDACs (HDAC1 and 3) was measured with the fluorometric HDAC Activity Assay kit: HDAC1 (10011563, Cayman Chemical, Ann Arbor, MI) and HDAC3 (50073 BPS Bioscience, San Diego, CA), according to the manufacturer's instructions. HDAC activity of class II HDACs (HDAC4 and HDAC6) was measured with the fluorometric HDAC Activity Assay kit: HDAC4, […] (50064 and 50076, BPS Bioscience, San Diego, CA), according to the manufacturer's instructions. All compounds were tested in single dose duplicate mode at 15 mM concentrations in 1% DMSO, based on the IC50 of 2,3-butanedione established in earlier work. Due to interference, concentrations of >30 mM were not used in the IC50 calculation. To account for any interference at lower concentrations, all baseline measurements of blank wells (no HDAC enzyme) were performed and subtracted with the various concentrations of 2,3-butanedione.
Diacetyl and 3 structurally related VOCs were evaluated using in vitro assay kits for measuring activity of four purified HDACs. Of the four VOCs), each has a different functional group, two are natural in origin, previously detected from microbes that are known to be present in soil (M. C. Lemfack et al., Nucleic Acids Res 46, D1261-D1265 (2018); and R. H. Cagan, W. N. Zeiger, Proc. Nat. Acad. Sci. U.S.A. 75, 4679-4683 (1978)) and two that are not (α-angelica lactone and ethyl pyruvate). […] All 4 VOCs inhibited both Class I HDACs (L. L. Walling, The Myriad Plant Responses to Herbivores. J Plant Growth Regul 19, 195-216 (2000); and M. Heil, R. Karban, Trends Ecol Evol 25, 137-144 (2010)) and the Class II HDAC6 with differences in degree (FIG. 2A,B).

[3] = system: A. thaliana plants (Col-0); assay: Flowering assay; format: in vivo, Arabidopsis thaliana; details: vapors from 0.1% solution
Excerpt: Dramatic effects of VOCs have been seen in the seedling stage. The effects on with flowering timing were observed, since the process involves numerous changes in gene expression and therefore potentially susceptible to HDAC inhibitory volatiles. Mutants in HDACs like HDA5 show delayed flowering due to upregulation of flowering repressor genes like FLC and MAF1 (M. Luo et al., Plant J 82, 925-936 (2015)). Conversely, mutants in HDA9lead to early flowering due to increased expression of FLOWERING LOCUS T (FT) and AGAMOUS-LIKE 19 (AGL19) (M. J. Kang, et al., New Phytol 206, 281-294 (2015)). We placed 3 weeks old A. thaliana plants in the glass chambers and exposed them to the vapors of two of the VOCs, diacetyl and α-angelica lactone volatilizing from 0.1% solutions in the glass chamber.
Twenty-seven day old A. thaliana plants (Col-0), that had been transplanted at day 7 to soil, were placed in 10-gallon glass aquarium as chamber along with a petridish containing 2 ml of chemical dissolved in PO or PO alone were placed at the other side of the container. Plants were exposed to odors until all plants began to flower, with odor cartridges being replaced daily. Signs of flower buds opening were counted as plant flowering. One-way analysis of Variance (ANOVA) between groups was performed for plant exposure quantitative data using Graph Pad Prism 9.

bacteria and fungi = details: literature (Debebe et al.); cited from earlier work
SH-SY5Y Cancer cell line = assay: Cancer cell viability assay, SH-SY5Y; format: cell-based; details: 33 micro-molar
Method: (§1) Cells were maintained in a 37° C. incubator with 5% CO2 throughout the experiment. Compound stocks were dissolved in 10% DMSO, but final concentrations were made fresh in complete media as needed. 10% DMSO solvent was used as control in complete media. Cells were seeded onto 12-well plates and allowed 12-24 hours until treatment began to allow cells to adhere to wells. This was followed by minimum 5-day treatment of compounds, changing the media with treatment every 48 hours. Cell lines A549, PC3, and SK-MEL-5 were seeded at 8000 cells/well which would provide 80-100% confluency after 6-day growth. SH-SY5Y was seeded at 8000 cells/well then 16,000 cells/well due to slower growth and given at least 10 days for sufficient growth. After allotted growth times, cell counts were performed via Countess™ automated cell counter. All assays were completed with a minimum of triplicate replicates for all conditions and analyzed through GraphPad Prism One-way ANOVA for significance.

PC3 Cancer cell line = assay: Cancer cell viability assay, PC3; format: cell-based; details: 33 uM, triplicates
Method: as §1

[4] = system: A. thaliana plants (Col-0); assay: Weed killing assay; format: in vivo, Arabidopsis thaliana; details: 1% (volume/volume) in PO, 7 days vapor exposure, 4 weeks recovery
Excerpt: Since large scale changes in gene expression occur it is presumed that higher doses of some of the compounds could negatively affect some plants, even causing death. Since Arabidopsis thaliana is also considered a type of weed and goes by the common name Thale cress, it was used as a model to test the weed killing potential at higher doses. In order to evaluate the activity of some of these volatiles in plant killing twenty-seven day old A. thaliana plants (Col-0), that had been transplanted at day 7 to soil, were placed in 10-gallon glass aquarium as chamber along with a petridish containing 2 ml of chemical dissolved in PO at 1% (volume/volume) or PO alone were placed at the other side of the container. Plants were exposed to odor vapors for 7 days and observed for death.
Twenty-seven day old A. thaliana plants (Col-0), that had been transplanted at day 7 to soil, were placed in 10-gallon glass aquarium as chamber along with a petridish containing 2 ml of chemical dissolved in PO at 1% (volume/volume) or PO alone were placed at the other side of the container. Plants were exposed to odor vapors for 7 days and observed for death.

[5] = system: histone deacetylase enzymes (HDACs); details: literature (Shimazu et al.); cited from earlier work
[6] = listed as Alpha angelica lactone

Compound: CCC(=O)C(=O)CC [3,4-hexanedione]
- lateral root growth (number of lateral roots) [1]: significant phenotypic changes; also recorded: promoted lateral root growth
- leaf development (number of large / true leaves) [1]: changes in the number of true leaf development/growth; also recorded: significant increase; also recorded: significant phenotypic changes; also recorded: The trend for the compounds were to inhibit leave development, except for 3,4-hexanedione
- root growth (primary root length) [1]: all the compounds except 3,4-hexanedione demonstrated significant root growth inhibition

Compound: CC1=CCC(=O)O1 [alpha angelica lactone]
- inhibition of Class II HDACs compared with Class I [2]: inhibits only Class 2 HDACs strongly
- inhibition of Class II HDACs compared with Class I ([2]; listed as α-angelica lactone): inhibited Class II HDACs more strongly than Class I
- delay in flowering (in words) [3]: approximately a week
- root growth [1]: significant root growth inhibition
- lateral root growth (number of lateral roots) [1, 6]: significant phenotypic changes; also recorded: promoted lateral root growth
- leaf development (number of large / true leaves) [1, 6]: significant phenotypic changes
- leaf development (number of large / true leaves) ([1]; listed as a-angelica lactone): significant decreases
- leaf development (number of large / true leaves) ([1]; listed as α-Angelica lactone): changes in the number of true leaf development/growth

Compound: CCOC(=O)C(C)=O [ethyl pyruvate]
- antimicrobial action on bacteria and fungi (bacteria and fungi): potent antimicrobial
- root growth [1]: significant root growth inhibition
- lateral root growth (number of lateral roots) [1]: inhibition; also recorded: significant phenotypic changes
- lateral root growth (number of lateral roots) ([1]; listed as Ethyl pyruvate): inhibited
- root growth (primary root length) [1]: inhibited
- changes in proliferation, SH-SY5Y (SH-SY5Y Cancer cell line): Significant changes in proliferations were noted only for 33 micro molar 2,3-butanedione treatment
- changes in proliferation, PC3 (PC3 Cancer cell line): No Significant changes in proliferations

Compound: CCCOC=O [propyl formate]
- plants killed (dead) [4]: 7 of 8
- changes in proliferation, SH-SY5Y (SH-SY5Y Cancer cell line): Significant changes in proliferations were noted only for 33 micro molar 2,3-butanedione treatment
- changes in proliferation, PC3 (PC3 Cancer cell line): No Significant changes in proliferations

Compound: CC(O)CC(=O)O (stereo not drawn) [β-hydroxybutyrate]
- inhibition of histone deacetylase enzymes (HDACs) [5]: known inhibitor
